# From patent publication US9302999B2, “Substituted triazoles as herbicides” (E. I. DU PONT DE NEMOURS AND COMPANY, priority 2012, dated 2016)
# Columns and labels:
# Assay type in all cases: in vivo
# [1] = system: ducksalad (Heteranthera limosa); assay: Test C flooded paddy test: ducksalad; settings: scale 0 to 100 (0 no effect, 100 complete control)
# How it was run: (§1)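 Rating: visual, 0–100 (100 = complete control), versus untreated controls after 13 to 15 greenhouse days. Treatment went into paddy water held at 3 cm over the soil, on plants grown to two leaves.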
# [2] = system: barnyardgrass (Echinochloa crus-galli); assay: Test A pre-/postemergence: barnyardgrass; settings: for Barnyardgrass plant response rating: Postemergence; for Plant response rating, Barnyardgrass: Preemergence
# How it was run: (§2)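 Soil medium was loam blended with sand; treatments pre- and postemergence were applied concurrently, postemergence at one- to two-leaf stage. Approximately ten days in greenhouse preceded visual comparison with untreated controls, scored 0 (no effect) to 100 (complete control).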
# corn (Zea mays) = assay: Test A pre-/postemergence: corn; settings: for Corn plant response rating: Postemergence; for Plant response rating, Corn: Preemergence
# How it was run: as §2
# [3] = system: sedge, umbrella (small-flower umbrella sedge, Cyperus difformis); assay: Test C flooded paddy test: sedge, umbrella; settings: scale 0 to 100 (0 no effect, 100 complete control)
# How it was run: as §1
# [4] = system: barnyardgrass (Echinochloa crus-galli); assay: Test C flooded paddy test: barnyardgrass; settings: scale 0 to 100 (0 no effect, 100 complete control)
# How it was run: as §1
# rice (Oryza sativa) = assay: Test C flooded paddy test: rice; settings: scale 0 to 100 (0 no effect, 100 complete control)
# How it was run: as §1
# [5] = system: crabgrass, large (large crabgrass, Digitaria sanguinalis); assay: Test A pre-/postemergence: crabgrass, large; settings: for Crabgrass, Large plant response rating: Postemergence; for Plant response rating, Crabgrass, Large: Preemergence
# How it was run: as §2
# [6] = system: pigweed (Amaranthus retroflexus); assay: Test A pre-/postemergence: pigweed; settings: for Pigweed plant response rating: Postemergence; for Plant response rating, Pigweed: Preemergence
# How it was run: as §2
# [7] = system: morningglory (Ipomoea spp.); assay: Test A pre-/postemergence: morningglory; settings: for Morningglory plant response rating: Postemergence; for Plant response rating, Morningglory: Preemergence
# How it was run: as §2
# [8] = system: velvetleaf (Abutilon theophrasti); assay: Test A pre-/postemergence: velvetleaf; settings: for Velvetleaf plant response rating: Postemergence; for Plant response rating, Velvetleaf: Preemergence
# How it was run: as §2
# [9] = system: foxtail, giant (giant foxtail, Setaria faberii); assay: Test A pre-/postemergence: foxtail, giant; settings: for Foxtail, Giant plant response rating: Postemergence; for Plant response rating, Foxtail, Giant: Preemergence
# How it was run: as §2
# [10] = system: wheat (Triticum aestivum); assay: Test A pre-/postemergence: wheat; settings: for Wheat plant response rating: Postemergence; for Plant response rating, Wheat: Preemergence
# How it was run: as §2
# [11] = Flood (flooded paddy test), 62 g ai/ha, visual rating after 13 to 15 days
# [12] = Flood (flooded paddy test), 125 g ai/ha, visual rating after 13 to 15 days
# [13] = Flood (flooded paddy test), 250 g ai/ha, visual rating after 13 to 15 days
# [14] = 125 g ai/ha, 0 to 100 scale, 0 is no effect, 100 is complete control
# [15] = 500 g ai/ha, visual rating on 0 to 100 scale (0 no effect, 100 complete control), approximately ten days
# [16] = 125 g ai/ha, 0 to 100 scale (0 no effect, 100 complete control)
# [17] = 500 g ai/ha, 0 to 100 scale, 0 is no effect, 100 is complete control
smiles,measurement,setting,value
Cc1nn(-c2ccnc(C(F)(F)F)c2)nc1C(=O)c1cccc(C(F)(F)F)c1 [Compound 49],"Plant response rating, Ducksalad",[1]; [11],0
same,"Plant response rating, Ducksalad",[1]; [12],30
same,"Plant response rating, Ducksalad",[1]; [13],40
same,"Plant response rating, Ducksalad","[1]; Flood, 31 g ai/ha",0
same,Barnyardgrass plant response rating,[2]; [14],10
same,Barnyardgrass plant response rating,[2]; [15],20
same,"Plant response rating, Barnyardgrass",[2]; [16],10
same,"Plant response rating, Barnyardgrass",[2]; [17],30
same,Corn plant response rating,corn (Zea mays); [14],10
same,Corn plant response rating,corn (Zea mays); [15],20
same,"Plant response rating, Corn",corn (Zea mays); [16],0
same,"Plant response rating, Corn",corn (Zea mays); [17],10
same,"Plant response rating, Sedge, Umbrella",[3]; [11],0
same,"Plant response rating, Sedge, Umbrella",[3]; [12],70
same,"Plant response rating, Sedge, Umbrella",[3]; [13],75
same,"Plant response rating, Sedge, Umbrella","[3]; Flood, 31 g ai/ha",0
same,"Plant response rating, Barnyardgrass",[4]; [11],0
same,"Plant response rating, Barnyardgrass",[4]; [12],10
same,"Plant response rating, Barnyardgrass",[4]; [13],15
same,"Plant response rating, Barnyardgrass","[4]; Flood, 31 g ai/ha",0
same,"Plant response rating, Rice",rice (Oryza sativa); [11],0
same,"Plant response rating, Rice",rice (Oryza sativa); [12],0
same,"Plant response rating, Rice",rice (Oryza sativa); [13],0
same,"Plant response rating, Rice","rice (Oryza sativa); Flood, 31 g ai/ha",0
same,"Crabgrass, Large plant response rating",[5]; [14],60
same,"Crabgrass, Large plant response rating",[5]; [15],90
same,"Plant response rating, Crabgrass, Large",[5]; [16],80
same,"Plant response rating, Crabgrass, Large",[5]; [17],100
same,Pigweed plant response rating,[6]; [14],80
same,Pigweed plant response rating,[6]; [15],100
same,"Plant response rating, Pigweed",[6]; [16],60
same,"Plant response rating, Pigweed",[6]; [17],100
same,Morningglory plant response rating,[7]; [14],20
same,Morningglory plant response rating,[7]; [15],50
same,"Plant response rating, Morningglory",[7]; [16],0
same,"Plant response rating, Morningglory",[7]; [17],10
same,Velvetleaf plant response rating,[8]; [14],30
same,Velvetleaf plant response rating,[8]; [15],60
same,"Plant response rating, Velvetleaf",[8]; [16],0
same,"Plant response rating, Velvetleaf",[8]; [17],10
same,"Foxtail, Giant plant response rating",[9]; [14],30
same,"Foxtail, Giant plant response rating",[9]; [15],60
same,"Plant response rating, Foxtail, Giant",[9]; [16],80
same,"Plant response rating, Foxtail, Giant",[9]; [17],100
same,Wheat plant response rating,[10]; [14],10
same,Wheat plant response rating,[10]; [15],20
same,"Plant response rating, Wheat",[10]; [16],10
same,"Plant response rating, Wheat",[10]; [17],20
Cc1nn(-c2nc(Cl)ns2)nc1C(=O)c1cccc(C(F)(F)F)c1 [Compound 59],"Plant response rating, Ducksalad",[1]; [11],0
same,"Plant response rating, Ducksalad",[1]; [12],0
same,"Plant response rating, Ducksalad",[1]; [13],0
same,"Plant response rating, Ducksalad","[1]; Flood, 31 g ai/ha",0
same,Barnyardgrass plant response rating,[2]; [14],0
same,Barnyardgrass plant response rating,[2]; [15],0
same,"Plant response rating, Barnyardgrass",[2]; [16],0
same,"Plant response rating, Barnyardgrass",[2]; [17],0
same,Corn plant response rating,corn (Zea mays); [14],0
same,Corn plant response rating,corn (Zea mays); [15],0
same,"Plant response rating, Corn",corn (Zea mays); [16],0
same,"Plant response rating, Corn",corn (Zea mays); [17],0
same,"Plant response rating, Sedge, Umbrella",[3]; [11],0
same,"Plant response rating, Sedge, Umbrella",[3]; [12],0
same,"Plant response rating, Sedge, Umbrella",[3]; [13],0
same,"Plant response rating, Sedge, Umbrella","[3]; Flood, 31 g ai/ha",0
same,"Plant response rating, Barnyardgrass",[4]; [11],0
same,"Plant response rating, Barnyardgrass",[4]; [12],0
same,"Plant response rating, Barnyardgrass",[4]; [13],0
same,"Plant response rating, Barnyardgrass","[4]; Flood, 31 g ai/ha",0
same,"Plant response rating, Rice",rice (Oryza sativa); [11],0
same,"Plant response rating, Rice",rice (Oryza sativa); [12],0
same,"Plant response rating, Rice",rice (Oryza sativa); [13],0
same,"Plant response rating, Rice","rice (Oryza sativa); Flood, 31 g ai/ha",0
same,"Crabgrass, Large plant response rating",[5]; [14],0
same,"Crabgrass, Large plant response rating",[5]; [15],0
same,"Plant response rating, Crabgrass, Large",[5]; [16],0
same,"Plant response rating, Crabgrass, Large",[5]; [17],0
same,Pigweed plant response rating,[6]; [14],0
same,Pigweed plant response rating,[6]; [15],0
same,"Plant response rating, Pigweed",[6]; [16],0
same,"Plant response rating, Pigweed",[6]; [17],0
same,Morningglory plant response rating,[7]; [14],0
same,Morningglory plant response rating,[7]; [15],0
same,"Plant response rating, Morningglory",[7]; [16],0
same,"Plant response rating, Morningglory",[7]; [17],0
same,Velvetleaf plant response rating,[8]; [14],0
same,Velvetleaf plant response rating,[8]; [15],0
same,"Plant response rating, Velvetleaf",[8]; [16],0
same,"Plant response rating, Velvetleaf",[8]; [17],0
same,"Foxtail, Giant plant response rating",[9]; [14],0
same,"Foxtail, Giant plant response rating",[9]; [15],0
same,"Plant response rating, Foxtail, Giant",[9]; [16],0
same,"Plant response rating, Foxtail, Giant",[9]; [17],0
same,Wheat plant response rating,[10]; [14],0
same,Wheat plant response rating,[10]; [15],0
same,"Plant response rating, Wheat",[10]; [16],0
same,"Plant response rating, Wheat",[10]; [17],0
